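96-well plates; 48 h exposure; 5 concentrations. Endpoints by linear interpolation between flanking doses. Not reached: highest tested concentration assigned. At the GI50, growth is halved. The concentration for full growth arrest is given as TGI.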
Key:
Assay in all cases: DTP human tumour cell line panel, 48 h
MDA-N = tested on: MDA-N
DMS 114 small cell lung = tested on: DMS 114 small cell lung
RXF-631 renal = tested on: RXF-631 renal
XF 498 CNS = tested on: XF 498 CNS
LXFL 529 NSCLC = tested on: LXFL 529 NSCLC
DMS 273 small cell lung = tested on: DMS 273 small cell lung
KM20L2 colon = tested on: KM20L2 colon
HOP-18 NSCLC = tested on: HOP-18 NSCLC
SNB-78 CNS = tested on: SNB-78 CNS

Row | Compound | TGI (MDA-N) | TGI (DMS 114 small cell lung) | TGI (RXF-631 renal) | TGI (XF 498 CNS) | TGI (LXFL 529 NSCLC) | TGI (DMS 273 small cell lung) | TGI (KM20L2 colon) | TGI (HOP-18 NSCLC) | TGI (SNB-78 CNS) | GI50 (LXFL 529 NSCLC) | GI50 (KM20L2 colon) | GI50 (HOP-18 NSCLC) | GI50 (MDA-N)
1 | C/C(=N\NC(=S)SCc1ccccc1)c1ccccn1 | 15.3 µM | – | – | – | – | – | – | – | – | – | – | – | –
2 | O=C(CCn1[nH]c(=O)c(Cl)c(Cl)c1=O)NNC(=O)C[n+]1ccccc1 | – | > 100 µM | > 100 µM | > 100 µM | > 100 µM | > 100 µM | > 100 µM | > 100 µM | – | – | – | – | –
3 | CC(C)(C)c1ccc(OCCOCCOc2ccc(C(C)(C)C)cc2S(=O)(=O)Nc2ccc([N+](=O)[O-])cc2)c(S(=O)(=O)Nc2ccc([N+](=O)[O-])cc2)c1 | – | > 100 µM | > 100 µM | – | – | > 100 µM | – | > 100 µM | > 100 µM | – | – | – | –
4 | O=C(CC(=O)c1cccc2ccccc12)C(=O)NC1C2CC3CC(C2)CC1C3 (stereo not drawn) | – | > 100 µM | > 100 µM | > 100 µM | > 100 µM | > 100 µM | > 100 µM | > 100 µM | > 100 µM | – | – | – | –
5 | CCc1cc(CCC(=O)Nc2ccccc2[N+](=O)[O-])[nH]c(=S)n1 | – | > 100 µM | > 100 µM | – | > 100 µM | – | > 100 µM | > 100 µM | > 100 µM | – | – | – | –
6 | COc1ccc2c3c(c(C(=O)c4ccccc4)oc13)CCC2 | – | > 100 µM | > 100 µM | > 100 µM | > 100 µM | > 100 µM | > 100 µM | > 100 µM | > 100 µM | – | – | – | –
7 | Cc1cccc(C(C)(C)C)c1NC(=O)CCc1nc(=S)[nH][nH]1 | – | > 100 µM | > 100 µM | > 100 µM | > 100 µM | > 100 µM | > 100 µM | – | > 100 µM | – | – | – | –
8 | CSC(=S)OC1CC(n2cnc3c(NC(=O)c4ccccc4)ncnc32)OC1CO[Si](C)(C)C(C)(C)C (stereo not drawn) | 47.4 µM | – | – | – | – | – | – | – | – | – | – | – | –
9 | Cn1c(N)nc(=O)c2c1N(C1OC(CO)C(O)C1O)CN2Cc1ccccc1 (stereo not drawn) | – | > 100 µM | > 100 µM | > 100 µM | > 100 µM | > 100 µM | > 100 µM | > 100 µM | > 100 µM | – | – | – | –
10 | CC1=C(/C=C/C(C)=C/C=C/C(C)=C/C(=O)O)C(C)(C)CCC1 | > 100 µM | > 100 µM | – | > 100 µM | > 100 µM | > 100 µM | > 100 µM | > 100 µM | – | – | – | – | –
11 | CC(=O)O[C@@]1(C)[C@@H](C)C(=O)O[C@@H]2CCN3CC=C(COC(=O)[C@]1(C)O)[C@H]23 | – | > 100 µM | – | – | > 100 µM | > 100 µM | > 100 µM | – | – | – | – | – | –
12 | CC(=O)[CH-]C(=O)c1ccccc1.CC(=O)[CH-]C(=O)c1ccccc1.Cc1cc([O-])ccc1Cl.Cc1cc([O-])ccc1Cl.[Ti+4] | – | – | – | – | > 100 µM | – | 84.9 µM | > 100 µM | – | 22.1 µM | 28.3 µM | 27.8 µM | –
13 | CSc1snc2sc3c(Cl)nnnc3c12 | – | 29 µM | 38.4 µM | 27.4 µM | 4.85 µM | 23.9 µM | 30.9 µM | 33.9 µM | 38.1 µM | – | – | – | –
14 | O=C(O/N=C1/CCC/C1=C\c1ccccc1)c1ccc(Cl)c(Cl)c1 | – | > 100 µM | > 100 µM | – | > 100 µM | > 100 µM | > 100 µM | > 100 µM | > 100 µM | – | – | – | –
15 | CC(C(N)C(=O)NC(C(=O)O)C1OC(n2ccc(=O)[nH]c2=O)C(O)C1O)C(O)c1ccc(O)cn1 (stereo not drawn) | > 100 µM | – | – | – | – | – | – | – | – | – | – | – | –
16 | C=C1CC2CC(O)CC(C1)C2 (stereo not drawn) | – | > 100 µM | – | > 100 µM | > 100 µM | > 100 µM | > 100 µM | > 100 µM | > 100 µM | – | – | – | –

Row | Compound | TGI (MDA-N) | TGI (DMS 114 small cell lung) | TGI (RXF-631 renal) | TGI (XF 498 CNS) | TGI (LXFL 529 NSCLC) | TGI (DMS 273 small cell lung) | TGI (KM20L2 colon) | TGI (HOP-18 NSCLC) | TGI (SNB-78 CNS) | GI50 (LXFL 529 NSCLC) | GI50 (KM20L2 colon) | GI50 (HOP-18 NSCLC) | GI50 (MDA-N)
17 | O=C1C2C(C(=O)N1c1ccccc1)C1([N+](=O)[O-])C=C3c4ccccc4N(C(=O)c4ccccc4)C32C2C(=O)N(c3ccccc3)C(=O)C21 (stereo not drawn) | – | > 100 µM | > 100 µM | > 100 µM | > 100 µM | > 100 µM | – | – | > 100 µM | – | – | – | –
18 | Nc1n[n+](-c2ccccc2)no1 | – | 89.8 µM | – | – | > 100 µM | > 100 µM | > 100 µM | – | > 100 µM | – | – | – | –
19 | Cc1cccc2c1CCC21OC(=O)c2c1ccc1ccccc21 (stereo not drawn) | – | 72.4 µM | 50.2 µM | – | > 100 µM | 91.5 µM | > 100 µM | > 100 µM | – | – | – | – | –
20 | CCOC(=O)c1cnc2c(ccc3ncccc32)c1NCCCN(CC)CC | – | – | – | > 100 µM | > 100 µM | > 100 µM | > 100 µM | > 100 µM | > 100 µM | – | – | – | –
21 | NC1=NN(c2ccccc2)C(=O)C1C(=O)C(=O)Nc1nccs1 (stereo not drawn) | – | > 100 µM | > 100 µM | – | > 100 µM | > 100 µM | > 100 µM | > 100 µM | > 100 µM | – | – | – | –
22 | C/C=C(\CCOS(=O)(=O)c1ccc(C)cc1)[Si](C)(C)C | – | > 100 µM | > 100 µM | > 100 µM | > 100 µM | > 100 µM | > 100 µM | > 100 µM | > 100 µM | – | – | – | –
23 | CC1=C(O)/C(=C/C(C)CCC/C(C)=C/C=C/C(C)CCCc2ccoc2)OC1=O (stereo not drawn) | – | > 100 µM | – | 34.6 µM | > 100 µM | > 100 µM | > 100 µM | – | > 100 µM | – | – | – | –
24 | N#CC1(C#N)C2C=CC(c3coc4cccc2c34)C1(C#N)C#N (stereo not drawn) | – | 9.98 µM | – | 15.3 µM | 21.2 µM | 31.6 µM | 35.5 µM | 30.4 µM | 43.1 µM | – | – | – | –
25 | Cc1ccc(NS(=O)(=O)c2cccc(C#N)c2)c2[nH]cc(C#N)c12 | > 91.6 µM | – | – | – | – | – | – | – | – | – | – | – | 4.1 µM
26 | O=C(N/N=C1\C(=O)N(c2nccs2)C(=O)C(=O)C1c1nc2ccccc2s1)c1ccccc1O (stereo not drawn) | – | > 100 µM | – | > 100 µM | > 100 µM | > 100 µM | > 100 µM | 77.4 µM | > 100 µM | – | – | – | –
27 | CCOC(=O)C(CC/C=C\c1ccccc1)N1CCC[C@H]1C(=O)OC (stereo partly drawn) | – | > 100 µM | – | > 100 µM | > 100 µM | > 100 µM | > 100 µM | > 100 µM | > 100 µM | – | – | – | –
28 | O=C1OC(=O)C2CCCC3CCCC1C32 (stereo not drawn) | > 100 µM | – | – | – | – | – | – | – | – | – | – | – | –
29 | O=NNc1ccc(Sc2ccc(NN=O)cn2)nc1 | > 100 µM | – | – | – | – | – | – | – | – | – | – | – | –
30 | CCOC(=O)c1cnc2sc3ccc4ccccc4c3n2c1=O | – | > 100 µM | > 100 µM | – | > 100 µM | > 100 µM | > 100 µM | > 100 µM | > 100 µM | – | – | – | –
31 | COc1cc(C2=N/C(=C/c3cccs3)C(=O)O2)cc(OC)c1OC | > 100 µM | – | – | – | – | – | – | – | – | – | – | – | –

Source: PubChem BioAssay (NCI)
